This is an account of results in ChEMBL document CHEMBL2429839, “Synthesis and characterization of 2-(4-((1-alkyl or aryl-1H-1,2,3-triazol-4-yl)methoxy)phenyl)naphtho[1,2-d]oxazoles for protein tyrosine phosphatase 1B inhibitory activity” (Med Chem Res, 2013).

Experiment [1] relates to Rattus norvegicus. Nature of the experiment: Antidiabetic activity in Sprague-Dawley albino rat assessed as inhibition of blood glucose level at 50 mg/kg, ip administered 10 mins prior to oral glucose challenge measured after 10 mins by glucometer relative to control. It counts as functional.
The test system of experiment [2] is A549. Nature of the experiment: Cytotoxicity against human A549 cells after 24 hrs by MTT assay. Format: cell-based. Particulars: A549, 24 h.
For experiment [3], the system named is HEK293. The experiment in a line: Cytotoxicity against HEK293 cells after 24 hrs by MTT assay. Format: cell-based. Particulars: Homo sapiens, HEK293, 24 h.
For experiment [4], the target named is T1, Tyrosine-protein phosphatase non-receptor type 1 (Rattus norvegicus) (UniProt P20417).
T1 sequence (whole entry): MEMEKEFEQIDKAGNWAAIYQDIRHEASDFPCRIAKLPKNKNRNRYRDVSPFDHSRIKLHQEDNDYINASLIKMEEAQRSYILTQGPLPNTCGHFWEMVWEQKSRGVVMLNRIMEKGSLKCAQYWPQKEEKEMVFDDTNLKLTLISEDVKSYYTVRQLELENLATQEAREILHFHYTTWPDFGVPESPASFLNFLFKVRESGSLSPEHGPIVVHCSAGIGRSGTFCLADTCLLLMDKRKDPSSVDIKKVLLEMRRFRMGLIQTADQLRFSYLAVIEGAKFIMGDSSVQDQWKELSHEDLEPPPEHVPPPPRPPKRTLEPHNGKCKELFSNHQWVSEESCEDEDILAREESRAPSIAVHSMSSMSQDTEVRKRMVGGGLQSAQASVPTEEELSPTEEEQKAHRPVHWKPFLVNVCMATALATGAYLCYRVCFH
Nature of the experiment: (§1) Inhibition of PTP1B in rat liver homogenates using p-nitro phenyl phosphate as substrate at 10 uM preincubated for 30 mins followed by substrate addition measured after 10 mins relative to control. It counts as tissue-based.

Experiment [5] has as its target T1, Tyrosine-protein phosphatase non-receptor type 1 (Rattus norvegicus). Nature of the experiment: (§2) Inhibition of PTP1B in rat liver homogenates using p-nitro phenyl phosphate as substrate preincubated for 30 mins followed by substrate addition measured after 10 mins. It counts as tissue-based.
In experiment [6] the target is T2, Tyrosine-protein phosphatase non-receptor type 1 (Rattus norvegicus, UniProt P20417).
T2 sequence (P20417 whole entry): T1 sequence (whole entry)
The description is as §2. It counts as tissue-based.

Experiment [7] relates to Rattus norvegicus. Nature of the experiment: Antidiabetic activity in Sprague-Dawley albino rat assessed as inhibition of blood glucose level at 300 mg/kg, ip administered 10 mins prior to oral glucose challenge measured after 10 mins by glucometer relative to control. Format: functional.
For experiment [8], the target named is Tyrosine-protein phosphatase non-receptor type 1 (Rattus norvegicus) (UniProt P20417). The experiment is described as §1. Format: tissue-based. The source holds these as a separate data set.

As to `Cc1ccc(-n2cc(COc3ccc(-c4nc5c(ccc6ccccc65)o4)cc3)nn2)cc1`, the inhibition in vivo at 50 mg/kg in experiment [1] was 62.6%. In addition, the concentration for half-maximal inhibition (IC50) in experiment [2] was over 1000 µM; in experiment [3], over 1000 µM; in experiment [6], 20.4 µM. Further, the inhibition in experiment [4] was 41.6%; in experiment [5], “Dose-dependent effect”.
With `CN(C)C(=N)NC(=N)N` [METFORMIN], in experiment [7], the inhibition in vivo at 300 mg/kg was found to be 57.1%.
Turning to `COc1cccc2c1C(=O)c1c(O)c3c(c(O)c1C2=O)C[C@@](O)(C(=O)CO)C[C@@H]3O[C@H]1C[C@H](N)[C@H](O)[C@H](C)O1` [DOXORUBICIN], the concentration for half-maximal inhibition (IC50) in experiment [2] came out at 3.98 µM; in experiment [3], 1.01 µM.
As for `FC(F)(F)c1ccc(-n2cc(COc3ccc(-c4nc5c(ccc6ccccc65)o4)cc3)nn2)cc1`, the inhibition in vivo at 50 mg/kg in experiment [1] came out at 78.6%. In addition, the results for the IC50 in experiment [2], in experiment [3] and in experiment [6] were over 1000 µM, over 1000 µM and 8.61 µM, respectively. For the same compound, the inhibition in experiment [4] is 68.3%; in experiment [5] it was “Dose-dependent effect”.
In experiment [8], SODIUM ORTHOVANAD came in with an inhibition of 60.7%.
